The source of these data is US20240277636A1, “COMBINATION COMPRISING AT LEAST ONE SEROTONIN REUPTAKE INHIBITOR AND AT LEAST ONE STIMULATOR OF POTASSIUM-CHLORIDE COTRANSPORTER TYPE 2 AND ITS MEDICAL USE” (Université de Bordeaux, priority 2021, published 2024).

This assay concerns neuropathic mice. Particulars: conditioned 1 h 30 after injection, post- versus pre-conditioning, result in words.

Description: 14 days after mice are free to explore during 10 minutes, a 2-chamber arena separated by a narrow corridor. A camera placed above the device allows tracking of mice movements. […] 1 H 30 after injection of either fluoxetine alone or combination of fluoxetine and CLP290, mice are restricted to one chamber during 10 minutes. 2 days after mice are put again and free to explore the entire arena. […] As control experiment, the same procedure is performed in neuropathic mice with fluoxetine and CLP290 vehicle.

Turning to `CNCCC(Oc1ccc(C(F)(F)F)cc1)c1ccccc1` (stereo not shown) [fluoxetine], the “time spent in the conditioned chamber (CPP)” value is reported as “not”.
